Measured values published in ChEMBL document CHEMBL3227934, “Cardioselectivity of beta-adrenoceptor blocking agents 1. 1-[(4-Hydroxyphenethyl)amino]-3-(aryloxy)propan-2-ols” (J Med Chem, 1979).

Key:
[1] = target: Beta-1 adrenergic receptor (Rattus norvegicus) (UniProt P18090)
Description: Displacement of [3H]DHA from beta1 adrenergic receptor in rat ventricular muscle by competitive binding assay

Rattus norvegicus = species on record: Rattus norvegicus; test: Cardio selectivity ratio of Kapp for beta2 adrenergic receptor in rat lung muscle to Kapp for beta1 adrenergic receptor in rat ventricular muscle
[2] = target: Beta-2 adrenergic receptor (Rattus norvegicus) (UniProt P10608)
Beta-2 adrenergic receptor (Rattus norvegicus), sequence (P10608 whole entry, looked up): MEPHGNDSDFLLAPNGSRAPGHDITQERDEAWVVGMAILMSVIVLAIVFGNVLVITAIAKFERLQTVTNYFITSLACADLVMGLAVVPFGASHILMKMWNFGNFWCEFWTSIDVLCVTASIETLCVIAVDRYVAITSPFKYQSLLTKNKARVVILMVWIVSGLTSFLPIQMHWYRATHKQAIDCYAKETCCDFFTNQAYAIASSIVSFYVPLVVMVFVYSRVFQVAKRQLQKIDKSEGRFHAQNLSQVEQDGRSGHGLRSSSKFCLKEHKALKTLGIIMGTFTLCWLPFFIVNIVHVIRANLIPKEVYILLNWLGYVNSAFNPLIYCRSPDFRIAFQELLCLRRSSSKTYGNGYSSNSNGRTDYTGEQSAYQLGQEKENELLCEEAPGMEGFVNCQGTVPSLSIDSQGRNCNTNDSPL
Description: Displacement of [3H]DHA from beta2 adrenergic receptor in rat lung muscle by competitive binding assay

Beta-1 adrenergic receptor (Rattus norvegicus), sequence (P18090 whole entry, looked up): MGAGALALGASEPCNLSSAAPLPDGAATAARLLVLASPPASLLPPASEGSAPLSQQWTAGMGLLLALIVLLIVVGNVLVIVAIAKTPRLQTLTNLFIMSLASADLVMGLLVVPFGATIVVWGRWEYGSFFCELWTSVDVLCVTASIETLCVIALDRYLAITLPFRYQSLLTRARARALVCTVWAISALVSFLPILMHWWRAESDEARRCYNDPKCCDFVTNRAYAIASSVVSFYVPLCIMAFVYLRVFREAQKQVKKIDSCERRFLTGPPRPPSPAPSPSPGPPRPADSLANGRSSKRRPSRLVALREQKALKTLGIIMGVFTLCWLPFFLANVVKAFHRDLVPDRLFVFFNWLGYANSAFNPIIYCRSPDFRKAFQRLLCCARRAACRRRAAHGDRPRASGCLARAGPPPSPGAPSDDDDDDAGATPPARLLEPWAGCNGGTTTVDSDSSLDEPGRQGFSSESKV

Row | SMILES | Kapp [1] [µM] | Ratio (Rattus norvegicus) | Kapp [2] [µM]
1 | CC(C)NCC(O)COc1cccc2[nH]ccc12 (racemic) | 0.014 |  | 
2 | CC(=O)Nc1ccc(OCC(O)CNC(C)C)cc1 (racemic) | 18 | 17 | 313
3 | CCCCCC(=O)Nc1ccc(OCC(O)CNC(C)C)cc1 (centres undefined) | 2.2 | 16 | 34
4 | CC(C)(C)NCC(O)COc1cccc2c1CCCC2=O (centres undefined) | 0.015 | 1.1 | 0.017
5 | COc1ccc(CCNCC(O)COc2ccc(NC(C)=O)cc2)cc1OC (centres undefined) | 7 | 32 | 224
6 | C=CCc1ccccc1OCC(O)CNCCc1ccc(O)cc1 (centres undefined) | 0.2 | 1.3 | 0.27
7 | CCCCCC(=O)Nc1ccc(OCC(O)CNCCc2ccc(OC)c(OC)c2)cc1 (centres undefined) | 0.35 | 77 | 27
8 | CCCCCC(=O)Nc1ccc(OCC(O)CNCCc2ccc(O)cc2)cc1 (centres undefined) | 3.9 | 10 | 39
9 | CC(=O)Nc1ccccc1OCC(O)CNCCc1ccc(O)cc1 (centres undefined) | 2.1 | 7.6 | 16
10 | CCCCCC(=O)Nc1ccc(OCC(O)CNCCc2ccc(O)cc2)c(Cl)c1 (centres undefined) | 2.7 | 5 | 14
11 | C=CCc1ccccc1OCC(O)CNC(C)C (racemic) | 0.0077 | 2.6 | 0.02
12 | COc1ccc(CCNCC(O)COc2ccccc2)cc1OC (centres undefined) | 0.38 | 4.7 | 1.8
13 | O=C1CCCc2c(OCC(O)CNCCc3ccc(O)cc3)cccc21 (centres undefined) | 0.37 | 1.5 | 0.56
14 | CC(=O)Nc1ccc(OCC(O)CNCCc2ccc(O)cc2)cc1 (centres undefined) | 18 | 4.9 | 88
15 | CC(C)NCC(O)COc1ccccc1 (centres undefined) | 0.24 | 1.5 | 0.37
16 | CCCCCC(=O)Nc1ccc(OCC(O)CNCCc2ccc(OC)c(OC)c2)c(Cl)c1 (centres undefined) | 0.32 | 53 | 17
17 | Oc1ccc(CCNCC(O)COc2ccccc2)cc1 (centres undefined) | 0.7 | 0.3 | 0.24
